Data reported in patent publication US20230340012A1, “NATURAL AND SYNTHETIC COMPOUNDS FOR TREATING CANCER AND OTHER DISEASES” (PACIFIC ARROW LIMITED, priority 2009, published 2023).

Test system: cancer cells
Assay: MTT cytotoxic assay of esterification products (Cytotoxicity activity)
Type: cell-based, human
In short: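 Cytotoxicity was read by MTT (Carmichael method, modified), with cells seeded 24 h ahead of treatment. Sixteen human cancer lines spanning bone, lung, bladder, ovary, colon, pancreas, prostate, skin, mouth, kidney, breast, liver, brain, leukemia and cervix were used. Test samples were acyl chloride esterification products of triterpenes, as mixtures or HPLC-purified compounds.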

[1] = E4A esterified with 2-propenoyl chloride (Ppe = Propenoyl), compounds isolated with HPLC
[2] = E4A esterified with Propionyl chloride (Ppi = Propionyl), compounds isolated with HPLC
[3] = E4A esterified with benzoyl chloride (Ben = benzoyl), compounds isolated with HPLC
[4] = esterification products of core compound E4A with (2E)-2-pentenoyl chloride (2pe = 2-pentenoyl)
[5] = esterification products of core compound E4A with Butyryl chloride (But = Butyryl)
[6] = esterification products of core compound E4A with Decanoyl chloride (Dec = Decanoyl)
[7] = esterification products of core compound E4A with Isobutyryl chloride (Iso = Isobutyryl)
[8] = esterification products of core compound E4A with Myristoyl chloride (Myr = Myristoyl)
[9] = esterification products of core compound E4A with Octanoyl chloride (Oct = Octanoyl)

SMILES | Cytotoxicity activity [1] | Cytotoxicity activity [2] | Cytotoxicity activity [3] | Cytotoxicity activity [4] | Cytotoxicity activity [5] | Cytotoxicity activity [6] | Cytotoxicity activity [7] | Cytotoxicity activity [8] | Cytotoxicity activity [9]
CC1(C)CC2C3=CCC4C5(C)CCC(O)C(C)(COC(=O)c6ccccc6)C5CCC4(C)C3(C)CC(OC(=O)c3ccccc3)C2(COC(=O)c2ccccc2)C(O)C1OC(=O)c1ccccc1 (stereo not drawn) [Compound K13] | weak | weak | weak | weak | weak | weak | weak | weak | weak
CC1(C)CC2C3=CCC4C5(C)CCC(OC(=O)c6ccccc6)C(C)(COC(=O)c6ccccc6)C5CCC4(C)C3(C)CC(O)C2(COC(=O)c2ccccc2)C(OC(=O)c2ccccc2)C1O (stereo not drawn) [Compound K14] | weak | weak | weak | weak | weak | weak | weak | weak | weak
CC1(C)CC2C3=CCC4C5(C)CCC(OC(=O)c6ccccc6)C(C)(COC(=O)c6ccccc6)C5CCC4(C)C3(C)CC(O)C2(COC(=O)c2ccccc2)C(OC(=O)c2ccccc2)C1OC(=O)c1ccccc1 (stereo not drawn) [Compound K15] | weak | weak | weak | weak | weak | weak | weak | weak | weak
CC1(C)CC2C3=CCC4C5(C)CCC(O)C(C)(COC(=O)c6ccccc6)C5CCC4(C)C3(C)CC(OC(=O)c3ccccc3)C2(COC(=O)c2ccccc2)C(OC(=O)c2ccccc2)C1OC(=O)c1ccccc1 (stereo not drawn) [Compound K16] | weak | weak | weak | weak | weak | weak | weak | weak | weak
CC1(C)CC2C3=CCC4C5(C)CCC(OC(=O)c6ccccc6)C(C)(COC(=O)c6ccccc6)C5CCC4(C)C3(C)CC(OC(=O)c3ccccc3)C2(COC(=O)c2ccccc2)C(O)C1OC(=O)c1ccccc1 (stereo not drawn) [Compound K17] | weak | weak | weak | weak | weak | weak | weak | weak | weak
CC1(C)CC2C3=CCC4C5(C)CCC(OC(=O)c6ccccc6)C(C)(COC(=O)c6ccccc6)C5CCC4(C)C3(C)CC(OC(=O)c3ccccc3)C2(COC(=O)c2ccccc2)C(OC(=O)c2ccccc2)C1O (stereo not drawn) [Compound K18] | weak | weak | weak | weak | weak | weak | weak | weak | weak
CC1(C)CC2C3=CCC4C5(C)CCC(OC(=O)c6ccccc6)C(C)(COC(=O)c6ccccc6)C5CCC4(C)C3(C)CC(OC(=O)c3ccccc3)C2(COC(=O)c2ccccc2)C(OC(=O)c2ccccc2)C1OC(=O)c1ccccc1 (stereo not drawn) [Compound K19] | none | none | none | none | none | none | none | none | none
CC1(C)CC2C3=CCC4C5(C)CCC(O)C(C)(CO)C5CCC4(C)C3(C)CC(O)C2(COC(=O)c2ccccc2)C(OC(=O)c2ccccc2)C1OC(=O)c1ccccc1 (stereo not drawn) [Compound K20] | moderate | moderate | moderate | moderate | moderate | moderate | moderate | moderate | moderate
CC1(C)CC2C3=CCC4C5(C)CCC(O)C(C)(COC(=O)c6ccccc6)C5CCC4(C)C3(C)CC(O)C2(CO)C(OC(=O)c2ccccc2)C1OC(=O)c1ccccc1 (stereo not drawn) [Compound K21] | moderate | moderate | moderate | moderate | moderate | moderate | moderate | moderate | moderate
CC1(C)CC2C3=CCC4C5(C)CCC(O)C(C)(CO)C5CCC4(C)C3(C)CC(OC(=O)c3ccccc3)C2(CO)C(OC(=O)c2ccccc2)C1OC(=O)c1ccccc1 (stereo not drawn) [Compound K22] | moderate | moderate | moderate | moderate | moderate | moderate | moderate | moderate | moderate
CC1(C)CC2C3=CCC4C5(C)CCC(OC(=O)c6ccccc6)C(C)(CO)C5CCC4(C)C3(C)CC(O)C2(CO)C(OC(=O)c2ccccc2)C1OC(=O)c1ccccc1 (stereo not drawn) [Compound K23] | moderate | moderate | moderate | moderate | moderate | moderate | moderate | moderate | moderate
CC1(C)CC2C3=CCC4C5(C)CCC(O)C(C)(CO)C5CCC4(C)C3(C)CC(O)C2(CO)C(OC(=O)c2ccccc2)C1OC(=O)c1ccccc1 (stereo not drawn) [Compound K24] | moderate | moderate | moderate | moderate | moderate | moderate | moderate | moderate | moderate
CC1(C)CC2C3=CCC4C5(C)CCC(O)C(C)(CO)C5CCC4(C)C3(C)CC(O)C2(COC(=O)c2ccccc2)C(O)C1OC(=O)c1ccccc1 (stereo not drawn) [Compound K25] | moderate | moderate | moderate | moderate | moderate | moderate | moderate | moderate | moderate
CC1(C)CC2C3=CCC4C5(C)CCC(O)C(C)(CO)C5CCC4(C)C3(C)CC(O)C2(COC(=O)c2ccccc2)C(OC(=O)c2ccccc2)C1O (stereo not drawn) [Compound K26] | moderate | moderate | moderate | moderate | moderate | moderate | moderate | moderate | moderate
CC1(C)CC2C3=CCC4C5(C)CCC(OC(=O)c6ccccc6)C(C)(CO)C5CCC4(C)C3(C)CC(O)C2(COC(=O)c2ccccc2)C(O)C1O (stereo not drawn) [Compound K27] | moderate | moderate | moderate | moderate | moderate | moderate | moderate | moderate | moderate
CC1(C)CC2C3=CCC4C5(C)CCC(O)C(C)(CO)C5CCC4(C)C3(C)CC(OC(=O)c3ccccc3)C2(COC(=O)c2ccccc2)C(O)C1O (stereo not drawn) [Compound K28] | moderate | moderate | moderate | moderate | moderate | moderate | moderate | moderate | moderate
CC1(C)CC2C3=CCC4C5(C)CCC(O)C(C)(COC(=O)c6ccccc6)C5CCC4(C)C3(C)CC(O)C2(CO)C(O)C1OC(=O)c1ccccc1 (stereo not drawn) [Compound K29] | moderate | moderate | moderate | moderate | moderate | moderate | moderate | moderate | moderate
CC1(C)CC2C3=CCC4C5(C)CCC(O)C(C)(COC(=O)c6ccccc6)C5CCC4(C)C3(C)CC(O)C2(CO)C(OC(=O)c2ccccc2)C1O (stereo not drawn) [Compound K30] | moderate | moderate | moderate | moderate | moderate | moderate | moderate | moderate | moderate
